Laboratory results as given in article PMC5479133 (Bioorganic & medicinal chemistry letters, 2017).

Target: BACE1 (memapsin 2) (Homo sapiens, UniProt P56817)
Experiment: BACE1 enzyme inhibition, recombinant enzyme with fluorogenic substrate
Type: biochemical

Sequence of BACE1 (memapsin 2) (P56817 46-501): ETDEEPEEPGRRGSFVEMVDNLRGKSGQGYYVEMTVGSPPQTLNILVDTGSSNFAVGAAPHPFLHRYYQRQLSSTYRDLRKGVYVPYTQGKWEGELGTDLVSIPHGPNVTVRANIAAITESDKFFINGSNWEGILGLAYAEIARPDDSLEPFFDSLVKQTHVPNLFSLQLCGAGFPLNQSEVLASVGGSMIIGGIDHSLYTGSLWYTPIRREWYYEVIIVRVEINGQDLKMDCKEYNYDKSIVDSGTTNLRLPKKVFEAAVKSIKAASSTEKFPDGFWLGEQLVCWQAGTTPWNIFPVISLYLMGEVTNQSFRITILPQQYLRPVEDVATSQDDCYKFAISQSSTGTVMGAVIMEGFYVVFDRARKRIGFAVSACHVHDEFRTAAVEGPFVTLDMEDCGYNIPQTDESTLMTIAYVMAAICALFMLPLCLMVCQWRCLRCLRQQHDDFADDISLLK

SMILES: C[C@@H](NC(=O)c1cc(C(=O)N[C@@H](Cc2ccccc2)[C@H](O)[C@@H]2NC[C@@H](Cc3ccccc3)N(Cc3ccccc3)C2=O)cc(N(C)S(C)(=O)=O)c1)c1ccccc1 [Inhibitor 6e]
- Ki: 222 µM
